# Tests used:
# Botrytis cinerea [1] = assay: In vitro antifungal activity, 96-well microtiter plates; format: cell-based; conditions: in vitro 25° C.
# Method: The following compositions were tested: […] Subsequently, 100 μl of a Botrytis cinerea suspension prepared in PCB medium was used to inoculated each well with 2.5×10^3 spores/ml. […] The expected antifungal activity (E in %) of the active ingredient combination was calculated according to the Colby equation (Colby, 1967): […] wherein X and Y are the observed antifungal activities (in %) of the individual active ingredients X and Y, respectively.
# Fusarium proliferatum [2] = assay: as above; format: cell-based; conditions: in vitro 25° C., natamycin 2.5 ppm
# Method: Subsequently, 100 μl of a Botrytis cinerea suspension prepared in PCB medium was used to inoculated each well with 2.5×10^3 spores/ml.
# , the in vitro antifungal activity (%) of the individual active ingredients was assessed by calculating the reduction in mould growth observed in the presence of the active ingredient in comparison to the mould growth observed in the absence of the active ingredient. The expected antifungal activity (E in %) of the active ingredient combination was calculated according to the Colby equation (Colby, 1967): […]
# The experiment was conducted as described in Example 13, except for the fact that the following compositions were tested:
# Furthermore, Fusarium proliferatum was used for inoculation. The antifungal activity (in %) of the individual and combined active ingredients was determined according to the method described in Example 13.
# Botrytis cinerea [3] = assay: Treatment of wounded strawberries inoculated with Botrytis cinerea (mould growth); format: in vivo; conditions: 250 ppm natamycin; for Number of moulded wounds/total number of 12 wounds (title: Number of moulded strawberries): strawberries 20° C.; for Observed antifungal activity O: strawberries
# Method: Twelve fresh, organic strawberries were used per treatment. Each strawberry was wounded with a 0.5 mm long cut and each wound was inoculated with 10 μl of a Botrytis cinerea suspension containing 1×10^5 of spores/ml. […] The antifungal compositions also comprised 1.00% (w/w) methylhydroxyethylcellulose (MHEC), 0.40% (w/w) xanthan gum, 0.20% (w/w) anti-foaming agent, 0.30% (w/w) citric acid, 0.39% (w/w) lactic acid and 0.11% (w/w) potassium sorbate. The pH of the composition was 4.0. A composition without natamycin or prothioconazole was used as control. The treated strawberries were incubated in a closed box in the dark at 20° C. for 3 days.
# After 2 and 3 days of incubation, the mould growth on the strawberries was assessed in a twofold manner: (i) the number of moulded strawberries per total of 12 strawberries was counted; and (ii) the antifungal activity (in %) of the individual and combined active ingredients was determined by calculating the reduction in mould growth observed on the strawberries treated with the antifungal composition in comparison to the mould growth on the strawberries treated with the control composition according to the Colby method described in Example 4 (Colby, 1967).
# Penicillium italicum = assay: Treatment of wounded mandarins inoculated with Penicillium italicum (mould growth); format: in vivo
# Method: Ten fresh, organic mandarins were used per treatment. The peel of each mandarin was wounded once using a cork borer according to the method described by de Lapeyre de Bellaire and Dubois (1987). Subsequently, each wound was inoculated with 10 μl of a Penicillium italicum suspension containing 1×10^4 of spores/ml. […] The pH of the composition was 4.0. […]
# Fusarium proliferatum [4] = assay: Treatment of wounded bananas inoculated with Fusarium proliferatum (mould growth); format: in vivo; conditions: for Number of moulded wounds/total number of 12 wounds: bananas 20° C.; for Observed antifungal activity O: bananas
# Method: Four organic, unripe (green) bananas were used per treatment. The peel of each banana was wounded thrice using a cork borer according to the method described by de Lapeyre de Bellaire and Dubois (1987). Subsequently, each wound was inoculated with 15 μl of a Fusarium proliferatum suspension containing 1×10^5 of spores/ml. […] In addition, the antifungal compositions comprised 1.00% (w/w) methylhydroxyethylcellulose (MHEC), 0.40% (w/w) xanthan gum, 0.20% (w/w) anti-foaming agent, 0.30% (w/w) citric acid, 0.39% (w/w) lactic acid and 0.11% (w/w) potassium sorbate. The pH of the composition was 4.0. […] The treated, unripe bananas were incubated in a closed box in the dark at 20° C. and a relative air humidity of 95%, which was obtained in the presence of a saturated Na2HPO4 aqueous solution. During the first 20 days of incubation, a ripe (yellow) banana was included in the closed box to elevate the ethylene gas level and thus induce ripening of the treated, unripe bananas. […]
# The expected antifungal activity (E in %) of the combined antifungal composition comprising both active ingredients was calculated according to the Colby equation (Colby, 1967): […]
# wherein X and Y are the observed antifungal activities (in %) of the individual active ingredients X and Y, respectively. If the observed antifungal activity (O in %) of the combination exceeds the expected antifungal activity (E in %) of the combination and the synergy factor O/E is thus >1.0, the combined application of the active ingredients leads to a synergistic antifungal effect.
smiles,measurement,setting,value
"C[C@@H]1C/C=C/C=C/C=C/C=C/[C@H](O[C@@H]2O[C@H](C)[C@@H](O)[C@H](N)[C@@H]2O)C[C@@H]2O[C@](O)(C[C@@H](O)C[C@H]3O[C@@H]3/C=C/C(=O)O1)C[C@H](O)[C@H]2C(=O)O [Natamycin, natamycin]",Observed antifungal activity O,"Botrytis cinerea [1]; 5 days, natamycin 0.63 ppm, propiconazole 1.00 ppm or both",0%
same,Observed antifungal activity O,"Botrytis cinerea [1]; 5 days, natamycin 1.25 ppm, propiconazole 0.50 ppm, prothioconazole 0.13 ppm, or natamycin 1.25 ppm with either",0%
same,Observed antifungal activity O,"Botrytis cinerea [1]; 10 days, natamycin 1.25 ppm, prothioconazole 0.13 ppm or both",0%
same,Observed antifungal activity O,"Fusarium proliferatum [2]; 3 days, propiconazole 7.5 ppm or both",0%
same,Observed antifungal activity O,"Fusarium proliferatum [2]; 10 days, prothioconazole 0.5 ppm or both",0%
same,Number of moulded wounds/total number of 12 wounds (title: Number of moulded strawberries),"Botrytis cinerea [3]; 500 ppm prothioconazole or both, Day 2",10/12
same,Number of moulded wounds/total number of 12 wounds (title: Number of moulded strawberries),"Botrytis cinerea [3]; 500 ppm prothioconazole or both, Day 2, listed as natamycin",10
same,Number of moulded wounds/total number of 12 wounds (title: Number of moulded strawberries),"Botrytis cinerea [3]; 500 ppm prothioconazole or both, Day 3",12/12
same,Number of moulded wounds/total number of 12 wounds (title: Number of moulded strawberries),"Botrytis cinerea [3]; 500 ppm prothioconazole or both, Day 3, listed as natamycin",12
same,Observed antifungal activity O,"Botrytis cinerea [3]; 500 ppm prothioconazole (row prints 50 ppm) or both, 3 days",24%
same,Observed antifungal activity O,"Botrytis cinerea [3]; 500 ppm prothioconazole or both, 2 days",31%
same,Observed antifungal activity O,"Penicillium italicum; 250 ppm natamycin, 150 ppm prothioconazole or both, 13 days",27%
same,Observed antifungal activity O,"Penicillium italicum; 250 ppm natamycin, 150 ppm prothioconazole or both, 21 days",6%
same,Observed antifungal activity O,"Penicillium italicum; 250 ppm natamycin, 150 ppm prothioconazole or both, 26 days",5%
same,Observed antifungal activity O,"Penicillium italicum; 250 ppm natamycin, 150 ppm prothioconazole or both, 29 days",3%
same,Observed antifungal activity O,"Penicillium italicum; 250 ppm natamycin, 150 ppm prothioconazole or both, 34 days",0%
same,Observed antifungal activity O,"Penicillium italicum; 500 ppm natamycin, 600 ppm prothioconazole or both, 25 days",34%
same,Observed antifungal activity O,"Penicillium italicum; 500 ppm natamycin, 600 ppm prothioconazole or both, 28 days",27%
same,Observed antifungal activity O,"Penicillium italicum; 500 ppm natamycin, 600 ppm prothioconazole or both, 31 days",24%
same,Observed antifungal activity O,"Penicillium italicum; 500 ppm natamycin, 600 ppm prothioconazole or both, 34 days",24%
same,Number of moulded wounds/total number of 12 wounds,"Fusarium proliferatum [4]; 50 ppm natamycin, 250 ppm propiconazole or both, Day 29",12/12
same,Number of moulded wounds/total number of 12 wounds,"Fusarium proliferatum [4]; 50 ppm natamycin, 250 ppm propiconazole or both, Day 32",12/12
same,Number of moulded wounds/total number of 12 wounds,"Fusarium proliferatum [4]; 50 ppm natamycin, 250 ppm propiconazole or both, Day 34",12/12
same,Number of moulded wounds/total number of 12 wounds,"Fusarium proliferatum [4]; 50 ppm natamycin, 250 ppm propiconazole or both, Day 36",12/12
same,Number of moulded wounds/total number of 12 wounds,"Fusarium proliferatum [4]; 50 ppm natamycin, 250 ppm propiconazole or both, Day 39",12/12
same,Number of moulded wounds/total number of 12 wounds,"Fusarium proliferatum [4]; 50 ppm natamycin, 250 ppm propiconazole or both, Day 42",12/12
same,Number of moulded wounds/total number of 12 wounds,"Fusarium proliferatum [4]; 250 ppm natamycin, 100 ppm prothioconazole or both, Day 27",12/12
same,Number of moulded wounds/total number of 12 wounds,"Fusarium proliferatum [4]; 250 ppm natamycin, 100 ppm prothioconazole or both, Day 28 and 29",12/12
same,Number of moulded wounds/total number of 12 wounds,"Fusarium proliferatum [4]; 250 ppm natamycin, 500 ppm propiconazole or both, Day 34",12/12
same,Number of moulded wounds/total number of 12 wounds,"Fusarium proliferatum [4]; 250 ppm natamycin, 500 ppm propiconazole or both, Day 36",12/12
same,Number of moulded wounds/total number of 12 wounds,"Fusarium proliferatum [4]; 500 ppm natamycin, 150 ppm propiconazole or both, Day 26",8/12
same,Number of moulded wounds/total number of 12 wounds,"Fusarium proliferatum [4]; 500 ppm natamycin, 150 ppm propiconazole or both, Day 26, listed as natamycin",8
same,Number of moulded wounds/total number of 12 wounds,"Fusarium proliferatum [4]; 500 ppm natamycin, 150 ppm propiconazole or both, Days 27-29",8/12
same,Number of moulded wounds/total number of 12 wounds,"Fusarium proliferatum [4]; 500 ppm natamycin, 150 ppm propiconazole or both, Days 27-29, listed as natamycin",8
same,Number of moulded wounds/total number of 12 wounds,"Fusarium proliferatum [4]; 500 ppm natamycin, 150 ppm propiconazole or both, Days 31-32",8/12
same,Number of moulded wounds/total number of 12 wounds,"Fusarium proliferatum [4]; 500 ppm natamycin, 150 ppm propiconazole or both, Days 31-32, listed as natamycin",8
same,Number of moulded wounds/total number of 12 wounds,"Fusarium proliferatum [4]; 500 ppm natamycin, 250 ppm prothioconazole or both, Day 27, 28 and 29",8/12
same,Number of moulded wounds/total number of 12 wounds,"Fusarium proliferatum [4]; 500 ppm natamycin, 250 ppm prothioconazole or both, Day 27, 28 and 29, listed as natamycin",8
same,Number of moulded wounds/total number of 12 wounds,"Fusarium proliferatum [4]; 500 ppm natamycin, 1000 ppm propiconazole or both, Day 39",12/12
same,Number of moulded wounds/total number of 12 wounds,"Fusarium proliferatum [4]; 500 ppm natamycin, 1000 ppm propiconazole or both, Day 42",12/12
same,Observed antifungal activity O,"Fusarium proliferatum [4]; 50 ppm natamycin, 250 ppm propiconazole or both, 29 days",4%
same,Observed antifungal activity O,"Fusarium proliferatum [4]; 50 ppm natamycin, 250 ppm propiconazole or both, 32 days",1%
same,Observed antifungal activity O,"Fusarium proliferatum [4]; 50 ppm natamycin, 250 ppm propiconazole or both, 34 days",1%
same,Observed antifungal activity O,"Fusarium proliferatum [4]; 50 ppm natamycin, 250 ppm propiconazole or both, 36 days",0%
same,Observed antifungal activity O,"Fusarium proliferatum [4]; 50 ppm natamycin, 250 ppm propiconazole or both, 39 days",0%
same,Observed antifungal activity O,"Fusarium proliferatum [4]; 50 ppm natamycin, 250 ppm propiconazole or both, 42 days",0%
same,Observed antifungal activity O,"Fusarium proliferatum [4]; 250 ppm natamycin, 50 ppm propiconazole or both, 23 days",23%
same,Observed antifungal activity O,"Fusarium proliferatum [4]; 250 ppm natamycin, 50 ppm propiconazole or both, 27 days",26%
same,Observed antifungal activity O,"Fusarium proliferatum [4]; 250 ppm natamycin, 50 ppm propiconazole or both, 29 days",29%
same,Observed antifungal activity O,"Fusarium proliferatum [4]; 250 ppm natamycin, 500 ppm propiconazole or both, 34 days",0%
same,Observed antifungal activity O,"Fusarium proliferatum [4]; 250 ppm natamycin, 500 ppm propiconazole or both, 36 days",0%
same,Observed antifungal activity O,"Fusarium proliferatum [4]; 250 ppm natamycin, 500 ppm propiconazole or both, 39 days",0%
same,Observed antifungal activity O,"Fusarium proliferatum [4]; 250 ppm natamycin, 500 ppm propiconazole or both, 42 days",0%
same,Observed antifungal activity O,"Fusarium proliferatum [4]; 500 ppm natamycin, 150 ppm propiconazole or both, 27 days",81%
same,Observed antifungal activity O,"Fusarium proliferatum [4]; 500 ppm natamycin, 150 ppm propiconazole or both, 28 days",81%
same,Observed antifungal activity O,"Fusarium proliferatum [4]; 500 ppm natamycin, 150 ppm propiconazole or both, 29 days",81%
same,Observed antifungal activity O,"Fusarium proliferatum [4]; 500 ppm natamycin, 150 ppm propiconazole or both, 31 days",74%
same,Observed antifungal activity O,"Fusarium proliferatum [4]; 500 ppm natamycin, 150 ppm propiconazole or both, 32 days",72%

# Reference: patent US20150141248A1, “ANTIFUNGAL COMPOSITIONS” (DSM IP ASSETS B.V., priority 2011, published 2015)
